Source: patent US8283291B2, “Herbicidal composition” (Kumiai Chemical Industry Co., Ltd., priority 2006, dated 2012)

How the values were obtained:
italian ryegrass (LOLMU) = test: Test 4 on herbicidal effects against weeds and phytotoxicity by upland soil treatment; type: in vivo; conditions: 28th day
Source text: (§1) In a plastic pot of 14 cm in length×23 cm in width×8 cm in depth, upland soil was filled, and seeds of soybean (GLXMA), corn (ZEAMX), Ipomoea lacunosa L. (IPOLA) and velvetleaf (ABUTH) were sown and covered with soil. A wettable powder prepared in accordance with Formulation Example 1 was weighed so that the active ingredients became the prescribed amounts, diluted with water and uniformly applied to the soil surface by means of a small size spray at a rate of 500 liters per 1 hectare. Thereafter, cultivation was carried out in a greenhouse, and on the 28th day after the treatment, the herbicidal effects and phytotoxicity were examined in accordance with the standards as identified in Table 15.
(§2) The test on herbicidal effects and phytotoxicity against wheat (TRZAW), italian ryegrass (LOLMU), common chickweed (STEME) and common lambsquater (CHEAL) was carried out in the same manner as the above Test Example 1.

common chickweed (STEME) [1] = test: as above; type: in vivo, Stellaria media; conditions: 28th day
Source text: as §1, §2

barnyardgrass (ECHCG) = test: Test 3 on herbicidal effects against weeds and phytotoxicity by upland soil treatment; type: in vivo, Echinochloa crus-galli; conditions: 28th day
Source text: as §1
(§3) The test on herbicidal effects and phytotoxicity against corn (ZEAMX), barnyardgrass (ECHCG), common chickweed (STEME) and common lambsquater (CHEAL) was carried out in the same manner as the above Test Example 1.

common chickweed (STEME) [2] = test: as above; type: in vivo, Stellaria media; conditions: 28th day
Source text: as §1, §3

[3] = test system: common lambsquater (CHEAL); test: as above; type: in vivo, Chenopodium album; conditions: 28th day
Source text: as §1, §3

[4] = test system: Persian speedwell (VERPE); test: Test 2 on herbicidal effects against weeds and phytotoxicity by upland soil treatment; type: in vivo; conditions: 28th day
Source text: as §1
(§4) The test on herbicidal effects and phytotoxicity against wheat (TRZAW), common chickweed (STEME) and Persian speedwell (VERPE) was carried out in the same manner as the above Test Example 1.

common chickweed (STEME) [5] = test: as above; type: in vivo, Stellaria media; conditions: 28th day
Source text: as §1, §4

corn (ZEAMX) [6] = test: Test on effects of reducing phytotoxicity against corn by upland soil treatment; type: in vivo; conditions: 21st day
Procedure: In a plastic pot of 11 cm in length×11 cm in width×11 cm in depth, upland soil was filled, and seeds of corn (ZEAMX) were sown and covered with soil. A wettable powder prepared in accordance with Formulation Example 1 was weighed so that the active ingredients would be the prescribed amounts, diluted with water and uniformly applied to the soil surface by means of a small size spray at a rate of 500 liter per 1 hectare. Then, cultivation was carried out in a greenhouse, and on the 21st day after the treatment, the phytotoxicity against corn was examined in accordance with the standards as identified in Table 15.

soybean (GLXMA) [7] = test: Test on herbicidal effects against weeds and phytotoxicity by foliage treatment in upland field; type: in vivo; conditions: 21st day
Procedure: (§5) In a plastic pot of 11 cm in length×11 cm in width×11 cm in depth, the upland soil was filled, and seeds of corn (ZEAMX), soybean (GLXMA), greenfoxtail (SETVI), shattercane (SORVU), redroot pigweed (AMARE), Ipomoea lacunosa L. (IPOLA) and velvetleaf (ABUTH) were sown and covered with soil.
(§6) Then, cultivation was carried out in a greenhouse for 10 days. Then, a wettable powder prepared in accordance with Formulation Example 1 was weighed so that active ingredients would be the prescribed amounts, […] spray at a rate of 500 liter per 1 hectare. Thereafter, cultivation was carried out in a greenhouse, and on the 21st day after the treatment, the herbicidal effects and phytotoxicity were examined in accordance with the standards as identified in Table 15.

corn (ZEAMX) [8] = test: as above; type: in vivo; conditions: 21st day
Procedure: as §5, §6

soybean (GLXMA) [9] = test: Test 1 on herbicidal effects against weeds and phytotoxicity by upland soil treatment; type: in vivo; conditions: 28th day
Procedure: (§7) In a plastic pot of 14 cm in length×23 cm in width×8 cm in depth, upland soil was filled, and seeds of soybean (GLXMA), corn (ZEAMX), Ipomoea lacunosa L. (IPOLA) and velvetleaf (ABUTH) were sown and covered with soil. […] Thereafter, cultivation was carried out in a greenhouse, and on the 28th day after the treatment, the herbicidal effects and phytotoxicity were examined in accordance with the standards as identified in Table 15.

velvetleaf (ABUTH) = test: as above; type: in vivo, Abutilon theophrasti; conditions: 400 gai/ha, 28th day
Source text: as §1

[10] = test system: Ipomoea lacunosa L. (IPOLA); test: as above; type: in vivo; conditions: 400 gai/ha, 28th day
Source text: as §1

corn (ZEAMX) [11] = test: as above; type: in vivo; conditions: 28th day
Procedure: as §7

wheat (TRZAW) [12] = test: Test 2 on herbicidal effects against weeds and phytotoxicity by upland soil treatment; type: in vivo; conditions: 28th day
Source text: as §1, §4

wheat (TRZAW) [13] = test: Test 4 on herbicidal effects against weeds and phytotoxicity by upland soil treatment; type: in vivo; conditions: 1000 gai/ha, 28th day
Source text: as §1, §2

Structure (SMILES): Cn1nc(C(F)(F)F)c(CS(=O)(=O)C2=NOC(C)(C)C2)c1OC(F)F [3-0054, 3-[(5-difluoromethoxy-1-methyl-3-trifluoromethylpyrazol-4-yl)methylsulfonyl]-4,5-dihydro-5,5-dimethylisoxazole]
- herbicidal effect LOLMU (italian ryegrass (LOLMU); 50 gai/ha): 8 (Herbicidal effect or phytotoxicity of at least 80% and less than 90%)
- herbicidal effect STEME (common chickweed (STEME) [1]; 50 gai/ha): 4 (Herbicidal effect or phytotoxicity of at least 40% and less than 50%)
- herbicidal effect ECHCG (barnyardgrass (ECHCG); 62.5 gai/ha): 10 (Herbicidal effect or phytotoxicity of 100%)
- herbicidal effect STEME (common chickweed (STEME) [2]; 62.5 gai/ha): 5 (Herbicidal effect or phytotoxicity of at least 50% and less than 60%)
- herbicidal effect CHEAL ([3]; 62.5 gai/ha): 4 (Herbicidal effect or phytotoxicity of at least 40% and less than 50%)
- herbicidal effect VERPE ([4]; 18.8 gai/ha): 7 (Herbicidal effect or phytotoxicity of at least 70% and less than 80%)
- herbicidal effect STEME (common chickweed (STEME) [5]; 18.8 gai/ha): 5 (Herbicidal effect or phytotoxicity of at least 50% and less than 60%)

Structure (SMILES): CCNc1nc(Cl)nc(NC(C)C)n1 [Atrazine]
- phytotoxicity against corn ZEAMX (corn (ZEAMX) [6]; 2500 gai/ha): 0 (Herbicidal effect or phytotoxicity of at least 0% and less than 10%)

Structure (SMILES): CC1COc2ccccc2N1C(=O)C(Cl)Cl (stereo not shown) [Benoxacor]
- phytotoxicity against corn ZEAMX (corn (ZEAMX) [6]; 50 gai/ha): 0 (Herbicidal effect or phytotoxicity of at least 0% and less than 10%)

Structure (SMILES): CC(C)N1C(=O)c2ccccc2NS1(=O)=O [Bentazone]
- phytotoxicity GLXMA (soybean (GLXMA) [7]; 400 gai/ha): 0 (Herbicidal effect or phytotoxicity of at least 0% and less than 10%)
- phytotoxicity ZEAMX (corn (ZEAMX) [8]; 400 gai/ha): 0 (Herbicidal effect or phytotoxicity of at least 0% and less than 10%)

Structure (SMILES): C[C@H](NC(=O)[C@H](C)NC(=O)[C@@H](N)CCP(C)(=O)O)C(=O)O [Bilanafos]
- phytotoxicity GLXMA (soybean (GLXMA) [7]; 1000 gai/ha): 9 (Herbicidal effect or phytotoxicity of at least 90% and less than 100%)
- phytotoxicity ZEAMX (corn (ZEAMX) [8]; 1000 gai/ha): 9 (Herbicidal effect or phytotoxicity of at least 90% and less than 100%)

Structure (SMILES): COc1cc(OC)nc(Oc2cccc(Oc3nc(OC)cc(OC)n3)c2C(=O)O)n1 [Bispyribac-sodium]
- phytotoxicity GLXMA (soybean (GLXMA) [7]; 12.5 gai/ha): 9 (Herbicidal effect or phytotoxicity of at least 90% and less than 100%)
- phytotoxicity ZEAMX (corn (ZEAMX) [8]; 12.5 gai/ha): 0 (Herbicidal effect or phytotoxicity of at least 0% and less than 10%)

Structure (SMILES): CCOC(=O)c1ccccc1S(=O)(=O)NC(=O)Nc1nc(Cl)cc(OC)n1 [Chlorimuron-ethyl]
- phytotoxicity GLXMA (soybean (GLXMA) [7]; 6.3 gai/ha): 0 (Herbicidal effect or phytotoxicity of at least 0% and less than 10%)
- phytotoxicity ZEAMX (corn (ZEAMX) [8]; 6.3 gai/ha): 4 (Herbicidal effect or phytotoxicity of at least 40% and less than 50%)

Structure (SMILES): CC1(C)CON(Cc2ccccc2Cl)C1=O [Clomazone]
- phytotoxicity GLXMA (soybean (GLXMA) [9]; 200 gai/ha): 0 (Herbicidal effect or phytotoxicity of at least 0% and less than 10%)

Structure (SMILES): COC[C@H](C)N(C(=O)CCl)c1c(C)csc1C [Dimethenamid-P]
- herbicidal effect ABUTH (velvetleaf (ABUTH)): 7 (Herbicidal effect or phytotoxicity of at least 70% and less than 80%)
- herbicidal effect IPOLA [10]: 5 (Herbicidal effect or phytotoxicity of at least 50% and less than 60%)

Structure (SMILES): CN(C)C(=O)Nc1ccc(Cl)c(Cl)c1 [Diuron]
- phytotoxicity GLXMA (soybean (GLXMA) [9]; 800 gai/ha): 8 (Herbicidal effect or phytotoxicity of at least 80% and less than 90%)
- phytotoxicity ZEAMX (corn (ZEAMX) [11]; 800 gai/ha): 8 (Herbicidal effect or phytotoxicity of at least 80% and less than 90%)

Structure (SMILES): COC(=O)CSc1cc(/N=c2\sc(=O)n3n2CCCC3)c(F)cc1Cl [Fluthiacet-methyl]
- phytotoxicity GLXMA (soybean (GLXMA) [7]; 10 gai/ha): 0 (Herbicidal effect or phytotoxicity of at least 0% and less than 10%)
- phytotoxicity ZEAMX (corn (ZEAMX) [8]; 10 gai/ha): 0 (Herbicidal effect or phytotoxicity of at least 0% and less than 10%)

Structure (SMILES): CC(C)c1ccc(NC(=O)N(C)C)cc1 [Isoproturon]
- herbicidal effect VERPE ([4]; 375 gai/ha): 5 (Herbicidal effect or phytotoxicity of at least 50% and less than 60%)
- herbicidal effect STEME (common chickweed (STEME) [5]; 375 gai/ha): 6 (Herbicidal effect or phytotoxicity of at least 60% and less than 70%)

Structure (SMILES): CNc1cnn(-c2cccc(C(F)(F)F)c2)c(=O)c1Cl [Norflurazon]
- phytotoxicity GLXMA (soybean (GLXMA) [9]; 400 gai/ha): 1 (Herbicidal effect or phytotoxicity of at least 10% and less than 20%)
- phytotoxicity ZEAMX (corn (ZEAMX) [11]; 400 gai/ha): 9 (Herbicidal effect or phytotoxicity of at least 90% and less than 100%)

Structure (SMILES): C[n+]1ccc(-c2cc[n+](C)cc2)cc1 [Paraquat]
- phytotoxicity GLXMA (soybean (GLXMA) [7]; 500 gai/ha): 10 (Herbicidal effect or phytotoxicity of 100%)
- phytotoxicity ZEAMX (corn (ZEAMX) [8]; 500 gai/ha): 6 (Herbicidal effect or phytotoxicity of at least 60% and less than 70%)

Structure (SMILES): O=C(Nc1ccc(F)cc1)c1cccc(Oc2cccc(C(F)(F)F)c2)n1 [Picolinafen]
- herbicidal effect VERPE ([4]; 16 gai/ha): 6 (Herbicidal effect or phytotoxicity of at least 60% and less than 70%)
- phytotoxicity TRZAW (wheat (TRZAW) [12]; 16 gai/ha): 0 (Herbicidal effect or phytotoxicity of at least 0% and less than 10%)
- herbicidal effect STEME (common chickweed (STEME) [5]; 16 gai/ha): 5 (Herbicidal effect or phytotoxicity of at least 50% and less than 60%)

Structure (SMILES): CCCN(CCC)C(=O)SCc1ccccc1 [Prosulfocarb]
- herbicidal effect ECHCG (barnyardgrass (ECHCG); 1600 gai/ha): 2 (Herbicidal effect or phytotoxicity of at least 20% and less than 30%)
- herbicidal effect STEME (common chickweed (STEME) [2]; 1600 gai/ha): 5 (Herbicidal effect or phytotoxicity of at least 50% and less than 60%)
- herbicidal effect CHEAL ([3]; 1600 gai/ha): 5 (Herbicidal effect or phytotoxicity of at least 50% and less than 60%)

Structure (SMILES): CCOC(=O)C(C)Oc1ccc(Oc2cnc3cc(Cl)ccc3n2)cc1 (stereo not shown) [Quizalofop-ethyl]
- phytotoxicity GLXMA (soybean (GLXMA) [7]; 25 gai/ha): 0 (Herbicidal effect or phytotoxicity of at least 0% and less than 10%)
- phytotoxicity ZEAMX (corn (ZEAMX) [8]; 25 gai/ha): 10 (Herbicidal effect or phytotoxicity of 100%)

Structure (SMILES): CCC/C(=N\OCC)C1=C(O)CC(CC(C)SCC)CC1=O (stereo not shown) [Sethoxydim]
- phytotoxicity GLXMA (soybean (GLXMA) [7]; 100 gai/ha): 0 (Herbicidal effect or phytotoxicity of at least 0% and less than 10%)
- phytotoxicity ZEAMX (corn (ZEAMX) [8]; 100 gai/ha): 9 (Herbicidal effect or phytotoxicity of at least 90% and less than 100%)

Structure (SMILES): CS(=O)(=O)c1ccc(C(=O)C2C(=O)CCCC2=O)c(Cl)c1 [Sulcotrione]
- phytotoxicity against corn ZEAMX (corn (ZEAMX) [6]; 1000 gai/ha): 1 (Herbicidal effect or phytotoxicity of at least 10% and less than 20%)
- phytotoxicity GLXMA (soybean (GLXMA) [7]; 25 gai/ha): 6 (Herbicidal effect or phytotoxicity of at least 60% and less than 70%)
- phytotoxicity ZEAMX (corn (ZEAMX) [8]; 25 gai/ha): 0 (Herbicidal effect or phytotoxicity of at least 0% and less than 10%)

Structure (SMILES): CC(C)N(C(=O)SCC(Cl)=C(Cl)Cl)C(C)C [Triallate]
- herbicidal effect LOLMU (italian ryegrass (LOLMU); 1000 gai/ha): 2 (Herbicidal effect or phytotoxicity of at least 20% and less than 30%)
- phytotoxicity TRZAW (wheat (TRZAW) [13]): 0 (Herbicidal effect or phytotoxicity of at least 0% and less than 10%)
- herbicidal effect STEME (common chickweed (STEME) [1]; 1000 gai/ha): 2 (Herbicidal effect or phytotoxicity of at least 20% and less than 30%)

Structure (SMILES): CCCN(CCC)c1c([N+](=O)[O-])cc(C(F)(F)F)cc1[N+](=O)[O-] [Trifluralin]
- herbicidal effect VERPE ([4]; 250 gai/ha): 7 (Herbicidal effect or phytotoxicity of at least 70% and less than 80%)
- phytotoxicity TRZAW (wheat (TRZAW) [12]; 250 gai/ha): 0 (Herbicidal effect or phytotoxicity of at least 0% and less than 10%)
- herbicidal effect STEME (common chickweed (STEME) [5]; 250 gai/ha): 10 (Herbicidal effect or phytotoxicity of 100%)
